Reference: ChEMBL document CHEMBL1126278, “New neplanocin analogues. 1. Synthesis of 6'-modified neplanocin A derivatives as broad-spectrum antiviral agents” (J Med Chem, 1992)
Values after ≈ are worked out from the molar mass of the structure shown.

How the values were obtained:
HEL [1] = assay: Inhibitory effect on replication of DNA virus CMV (AD-169) on HEL cell line.; type: functional, cell-based; details: Homo sapiens
HEL [2] = assay: Inhibitory effect on replication of DNA virus CMV (Davis) on HEL cell line.; type: functional, cell-based; details: Homo sapiens
HEL [3] = assay: Inhibitory effect on replication of DNA virus TK-VZV (07-1) on HEL cell line.; type: functional, cell-based; details: Homo sapiens
HEL [4] = assay: Inhibitory effect on replication of DNA virus TK-VZV (YSR) on HEL cell line.; type: functional, cell-based; details: Homo sapiens
HEL [5] = assay: Inhibitory effect on replication of DNA virus VZV (Oka) on HEL cell line.; type: functional, cell-based; details: Homo sapiens
HEL [6] = assay: Inhibitory effect on replication of DNA virus VZV (YS) on HEL cell line.; type: functional, cell-based; details: Homo sapiens
HeLa [7] = assay: Inhibitory effect on replication of RNA virus coxsB-4 in HeLa cell line.; type: functional, cell-based; details: Homo sapiens
HeLa [8] = assay: Inhibitory effect on replication of RNA virus RSV in HeLa cell line; type: functional, cell-based; details: Homo sapiens
HeLa [9] = assay: Inhibitory effect on replication of RNA virus VSV in HeLa cell line.; type: functional, cell-based; details: Homo sapiens
HeLa [10] = assay: Inhibitory effect on replication of RNA virus cell morphology in HeLa cell line.; type: functional, cell-based; details: Homo sapiens
MDCK [11] = assay: Inhibitory effect on replication of RNA virus cell morphology in MDCK cell line.; type: functional, cell-based; details: Canis lupus familiaris
MT4 [12] = assay: Inhibitory effect on replication of RNA virus HIV-1 in MT-4 cell line.; type: functional, cell-based; details: Homo sapiens
MT4 [13] = assay: Inhibitory effect on replication of RNA virus HIV-2 in MT-4 cell line.; type: functional, cell-based; details: Homo sapiens
MT4 [14] = assay: Inhibitory effect on replication of RNA virus cell growth in MT-4 cell line.; type: functional, cell-based; details: Homo sapiens
PRK [15] = assay: Inhibitory effect on replication of DNA virus Cell morphology on PRK cell line; type: functional, cell-based; details: Oryctolagus cuniculus
PRK [16] = assay: Inhibitory effect on replication of DNA virus VV on PRK cell line.; type: functional, cell-based; details: Oryctolagus cuniculus
[17] = Inhibitory effect on replication of DNA virus HSV-1 (KOS) in PRK cell line.; type: functional, cell-based; details: Oryctolagus cuniculus
[18] = Inhibitory effect on replication of DNA virus HSV-2 (G) in PRK cell line.; type: functional, cell-based; details: Oryctolagus cuniculus
PRK [19] = assay: Inhibitory effect on replication of RNA virus VSV in PRK cell line.; type: functional, cell-based; details: Oryctolagus cuniculus
PRK [20] = assay: Inhibitory effect on replication of RNA virus cell morphology in PRK cell line.; type: functional, cell-based; details: Oryctolagus cuniculus
Adenosylhomocysteinase = Adenosylhomocysteinase (Mus musculus, UniProt P50247); assay: Inhibitory effect against L929 Cell S-adenosyl-L-homocysteine hydrolase
Adenosylhomocysteinase, sequence (P50247 whole entry): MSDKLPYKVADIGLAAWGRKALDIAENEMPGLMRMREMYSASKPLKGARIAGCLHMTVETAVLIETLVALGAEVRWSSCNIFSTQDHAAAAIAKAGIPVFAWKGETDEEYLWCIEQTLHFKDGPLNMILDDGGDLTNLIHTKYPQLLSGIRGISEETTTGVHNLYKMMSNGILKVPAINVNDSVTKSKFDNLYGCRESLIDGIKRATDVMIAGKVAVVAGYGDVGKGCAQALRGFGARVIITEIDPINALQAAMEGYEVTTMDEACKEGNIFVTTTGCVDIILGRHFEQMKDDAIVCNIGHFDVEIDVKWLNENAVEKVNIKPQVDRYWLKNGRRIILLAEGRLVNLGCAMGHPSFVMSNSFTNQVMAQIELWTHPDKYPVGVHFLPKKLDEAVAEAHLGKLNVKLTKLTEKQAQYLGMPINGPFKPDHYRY

Vero [21] = assay: Inhibitory effect on replication of RNA virus coxsB-4 in Vero cell line; type: functional, cell-based; details: Chlorocebus sabaeus
Vero [22] = assay: Inhibitory effect on replication of RNA virus measles on Vero cell line.; type: functional, cell-based; details: Chlorocebus sabaeus
Vero [23] = assay: Inhibitory effect on replication of RNA virus reo-1 in Vero cell line.; type: functional, cell-based; details: Chlorocebus sabaeus
Vero [24] = assay: Inhibitory effect on replication of RNA virus JV in Vero cell line.; type: functional, cell-based; details: Chlorocebus sabaeus
Vero [25] = assay: Inhibitory effect on replication of RNA virus SFV in Vero cell line; type: functional, cell-based; details: Chlorocebus sabaeus
Vero [26] = assay: Inhibitory effect on replication of RNA virus SV in Vero cell line.; type: functional, cell-based; details: Chlorocebus sabaeus
Vero [27] = assay: Inhibitory effect on replication of RNA virus TV in Vero cell line.; type: functional, cell-based; details: Chlorocebus sabaeus
Vero [28] = assay: Inhibitory effect on replication of RNA virus RNA synthesis in Vero cell line.; type: functional, cell-based; details: Chlorocebus sabaeus
Vero [29] = assay: (§1) Inhibitory effect on replication of RNA virus cell morphology in Vero cell line.; type: functional, cell-based; details: Chlorocebus sabaeus
Vero [30] = assay: Inhibitory effect on replication of RNA virus protein synthesis in Vero cell line.; type: functional, cell-based; details: Chlorocebus sabaeus
Vero [31] = assay: Inhibitory effect on replication of RNA virus PV-3 in Vero cell line.; type: functional, cell-based; details: Chlorocebus sabaeus
HeLa [32] = assay: cells; details: Homo sapiens
MDCK [33] = assay: cells; details: Canis lupus familiaris
MDCK [34] = assay: cells; details: Canis lupus familiaris; remark: listed apart in the source
HEL [35] = assay: Inhibitory effect on replication of DNA virus Cell growth on HEL cell line.; type: functional, cell-based; details: Homo sapiens
PRK [36] = assay: Inhibitory effect on replication of virus Cell morphology on PRK cell line; type: functional, cell-based; details: Oryctolagus cuniculus
Vero [37] = assay: as §1; type: functional, cell-based, Homo sapiens; details: Chlorocebus sabaeus

SMILES	IC50 (HEL [1])	IC50 (HEL [2])	IC50 (HEL [3])	IC50 (HEL [4])	IC50 (HEL [5])	IC50 (HEL [6])	IC50 (HeLa [7])	IC50 (HeLa [8])	IC50 (HeLa [9])	IC50 (HeLa [10])	IC50 (MDCK [11])	IC50 (MT4 [12])	IC50 (MT4 [13])	IC50 (MT4 [14])	IC50 (PRK [16])	IC50 [17]	IC50 [18]	IC50 (PRK [19])	IC50 (PRK [20])	IC50 (Vero [21])	other results
CC1=C[C@@H](n2cnc3c(N)ncnc32)[C@H](O)[C@@H]1O	2.5 µg/mL (≈ 10.1 µM)	1.5 µg/mL (≈ 6.07 µM)	4 µg/mL (≈ 16.2 µM)	10 µg/mL (≈ 40.4 µM)	20 µg/mL (≈ 80.9 µM)	2 µg/mL (≈ 8.09 µM)	> 200 µg/mL	10 µg/mL (≈ 40.4 µM)	7 µg/mL (≈ 28.3 µM)	> 400 µg/mL	> 100 µg/mL	> 1.5 µg/mL	> 1.5 µg/mL	2.5 µg/mL (≈ 10.1 µM)	0.7 µg/mL (≈ 2.83 µM)	> 200 µg/mL	> 200 µg/mL	0.7 µg/mL (≈ 2.83 µM)	> 400 µg/mL	> 200 µg/mL	IC50 (PRK [15]): > 400 µg/mL; Ki (Adenosylhomocysteinase): 150 nM; IC50 (Vero [22]): 4 µg/mL (≈ 16.2 µM); IC50 (Vero [23]): 0.7 µg/mL (≈ 2.83 µM); IC50 (Vero [24]): 0.4 µg/mL (≈ 1.62 µM); IC50 (Vero [25]): > 200 µg/mL; IC50 (Vero [26]): > 200 µg/mL; IC50 (Vero [27]): 0.4 µg/mL (≈ 1.62 µM); IC50 (Vero [28]): 1.7 µg/mL (≈ 6.88 µM); IC50 (Vero [29]): 40 µg/mL (≈ 162 µM); IC50 (Vero [30]): 4.7 µg/mL (≈ 19 µM); IC50 (Vero [31]): 20 µg/mL (≈ 80.9 µM); IC50 (HeLa [32]): > 200 µg/mL; IC50 (MDCK [33]): > 100 µg/mL; IC50 (MDCK [34]): > 100 µg/mL
CSCC1=C[C@@H](n2cnc3c(N)ncnc32)[C@H](O)[C@@H]1O	1.5 µg/mL (≈ 5.11 µM)	1 µg/mL (≈ 3.41 µM)	2 µg/mL (≈ 6.82 µM)	5 µg/mL (≈ 17 µM)	2.5 µg/mL (≈ 8.52 µM)	2 µg/mL (≈ 6.82 µM)	> 200 µg/mL	> 40 µg/mL	> 200 µg/mL	> 400 µg/mL	> 100 µg/mL	> 40 µg/mL	> 40 µg/mL	60 µg/mL (≈ 205 µM)	70 µg/mL (≈ 239 µM)	> 400 µg/mL	> 400 µg/mL	70 µg/mL (≈ 239 µM)	> 400 µg/mL	> 200 µg/mL	IC50 (HEL [35]): 9 µg/mL (≈ 30.7 µM); IC50 (PRK [36]): > 400 µg/mL; IC50 (Vero [22]): 40 µg/mL (≈ 136 µM); IC50 (Vero [23]): 40 µg/mL (≈ 136 µM); IC50 (Vero [37]): > 400 µg/mL; IC50 (Vero [24]): 40 µg/mL (≈ 136 µM); IC50 (Vero [25]): > 400 µg/mL; IC50 (Vero [26]): > 200 µg/mL; IC50 (Vero [27]): 40 µg/mL (≈ 136 µM); IC50 (Vero [31]): > 200 µg/mL; IC50 (HeLa [32]): > 200 µg/mL; IC50 (MDCK [33]): > 100 µg/mL; IC50 (MDCK [34]): > 100 µg/mL
